Here are results for 15 molecules from article PMC6264317, “Acetylcholinesterase-inhibiting Alkaloids from Zephyranthes concolor” (Molecules, 2011).

A short description of series [1]: Cytotoxicity in non-infected MT-4 cells (MTT). The settings on record: human. The format is cell-based, human. On the procedure: (§1) Anti-HIV activity and cytotoxicity were evaluated in human MT-4 cells based on viability of cells that have been infected or not infected with HIV-1 following exposure to various concentrations of the test compound according to the procedure previously described. After proliferation for 5 days the number of viable MT-4 cells was quantified by tetrazolium-based colorimetric method (MTT). The HIV-1 NL4-3 virus used was a molecular clone obtained from the National Institute of Health (Bethesda, USA) that was propagated and tittered in MT-4 cells. All anti-HIV evaluations were done in triplicate in two separate experiments.

Another series relates to HIV-1 (NL4-3). Nature of the series: Anti-HIV activity in MT-4 cells (MTT viability of infected cells). The format is cell-based. The settings on record: for EC50: Human immunodeficiency virus 1, NL43, MT4, 120 h, read-out: EC50 HIV-1 (NL4-3): effective concentration needed to inhibit 50% HIV-induced cell death, 5 days. As to the method:
as §1

For a further series, the system named is human MT-4 cells. Nature of the series: Cytotoxicity in non-infected MT-4 cells (MTT). The format is cell-based. The settings on record: 5 days. As to the method: as §1
Series [2] addresses T1, electric eel acetylcholinesterase (Electrophorus electricus, UniProt O42275).
T1 construct: purchased Sigma Aldrich Chemie (Stenheim, Germany) type V-S
Nature of the series: biochemical. As to the method:
The assay for measuring acetylcholinesterase (AChE) inhibitory activity was performed in 96 well microtitre plates as previously described. […] Acetylcholinesterase from Electrophorus electricus L. (electric eel) type V-S lyophilized powder, acetyl-thiocholine iodide (ATCI), and 5,5′-dithio-bis[2-nitrobenzoic acid] (DNTB) were obtained from Sigma Aldrich Chemie (Stenheim, Germany). Fifty microliters of AChE solution (500 U/mL) in phosphate buffer (8 mM K2HPO4, 2.3 mM NaH2PO4, 0.15 M NaCl, 0.05% Tween 20, pH 7.6), and 50 μL of the compound dissolved in the same buffer were added to each of the wells. The plates were incubated for 30 min at room temperature before addition of 100 μL of the substrate solution (0.1 M NaH2PO4, […], 0.6 mM ATCI in Millipore water, pH 7.5). Absorbance was recorded in a Labsystems Microplate Reader (Helsinki, Finland) at 405 nm after 6 min. Enzyme activity was calculated as percentage compared to an assay using a buffer without the tested compound. The AChE inhibitory data were analysed with the Prism software package (Graph Pad Inc., San Diego, USA).

A further series has as its system HIV-1. The settings on record: human MT4 cells; cited from earlier work.
The subject of series [3] is electric eel acetylcholinesterase. The settings on record: cited from earlier work.
Another series relates to human MT4 cells. The settings on record: cited from earlier work.
Setting [4] is: in vitro, read-out: EC50, inhibition of electric eel acetylcholinesterase in vitro.
The mark [5] stands for this setting: means ± SD of three determinations (10^−8 to 10^−3 M), read-out: EC50 (M), acetylcholinesterase inhibitory activity.

In brackets after ≈: the same amount, converted by molar mass. Like-named read-outs stand apart in the source and are kept apart here.

T1 sequence (O42275 24-633): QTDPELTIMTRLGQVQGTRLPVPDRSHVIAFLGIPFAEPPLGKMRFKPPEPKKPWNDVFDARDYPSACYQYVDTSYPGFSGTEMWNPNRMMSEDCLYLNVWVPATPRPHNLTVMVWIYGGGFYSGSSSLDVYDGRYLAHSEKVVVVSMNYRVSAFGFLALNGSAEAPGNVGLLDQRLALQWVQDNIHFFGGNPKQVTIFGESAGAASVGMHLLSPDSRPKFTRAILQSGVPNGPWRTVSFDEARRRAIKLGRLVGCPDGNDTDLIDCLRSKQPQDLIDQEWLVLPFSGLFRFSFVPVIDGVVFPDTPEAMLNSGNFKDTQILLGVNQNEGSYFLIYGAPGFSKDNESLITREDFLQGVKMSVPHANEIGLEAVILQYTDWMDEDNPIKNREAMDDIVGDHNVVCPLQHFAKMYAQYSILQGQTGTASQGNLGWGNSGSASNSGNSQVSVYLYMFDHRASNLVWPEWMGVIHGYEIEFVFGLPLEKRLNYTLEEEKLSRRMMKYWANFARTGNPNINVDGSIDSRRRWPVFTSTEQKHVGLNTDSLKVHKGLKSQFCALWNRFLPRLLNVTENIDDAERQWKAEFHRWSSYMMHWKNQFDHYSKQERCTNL

What is called CC50 is the concentration that lowers cell viability or growth by half. Low readings indicate harm at low concentration, high ones better tolerance by the cells. `c1cc(CN2CCCNCCNCCCNCC2)ccc1CN1CCCNCCNCCCNCC1` [AMD3100, reference compound] came in with a half-maximal cytotoxic concentration (CC50) at 5 days in series [1] greater than 5 µg/mL. Also, in the series on HIV-1 (NL4-3), the EC50 was determined as 0.001 µg/mL (≈ 0.00199 µM).
In the same order, the values of `Cc1ccnc2c1NC(=O)c1cccnc1N2C1CC1` [Nevirapine, reference compound] are greater than 2 µg/mL and 0.034 µg/mL (≈ 0.128 µM).
In the case of `Cc1cn([C@H]2C[C@H](N=[N+]=[N-])[C@@H](CO)O2)c(=O)[nH]c1=O` [AZT, reference compound], the “CC50 No virus: concentration needed to induce 50% death of non-infected cells” value in the series with human MT-4 cells was greater than 1 µg/mL. In addition, in the series on HIV-1 (NL4-3) (5 days), the “EC50 HIV-1 (NL4-3): effective concentration needed to inhibit 50% HIV-induced cell death” value was determined as 0.0007 µg/mL (≈ 0.00262 µM).
On to `COc1ccc2c3c1O[C@H]1C[C@@H](O)C=C[C@@]31CC[N+](C)([O-])C2` (some centres unmarked) [Galanthamine N-oxide (3), galanthamine N-oxide], for which the EC50 in series [2] (setting [4]) was 2.6e-05 M; in series [2] (setting [5]) it was 2.62e-05 M; with HIV-1 (NL4-3), greater than 25 µg/mL. The molecule also had a half-maximal cytotoxic concentration (CC50) at 5 days in series [1] greater than 25 µg/mL.
Consider `CO[C@@H]1C=C[C@@]23c4cc5c(cc4CN(C[C@@H]2O)[C@H]3C1)OCO5` [haemanthamine], for which the “therapeutic index TI50” value in the series on HIV-1 was “even lower therapeutic indices than lycorine”.
As to `COc1cc2c(cc1OC)[C@H]1[C@H]3C(=CC[C@H]1OC2=O)CCN3C` [homolycorine], in the series on HIV-1, the “therapeutic index TI50” value was “even lower therapeutic indices than lycorine”.
In the case of `CN1CC[C@@]23C=C[C@H](O)C[C@@H]2Oc2c(O)ccc(c23)C1` [sanguinine], the “increase of the AChE inhibitory activity relative to galanthamine” value in series [3] is roughly 10 fold.
Turning to `COC1C=CC23CCN(C)Cc4ccc(O)c(c42)OC3C1` (centres unmarked) [Chlidanthine (1), chlidanthine], the EC50 is 2.4e-05 M in series [2] (setting [4]), 2.41e-05 M in series [2] (setting [5]) and greater than 25 µg/mL with HIV-1 (NL4-3). Besides, the half-maximal cytotoxic concentration (CC50) at 5 days in series [1] is greater than 25 µg/mL.
For `COc1ccc2c3c1O[C@H]1C[C@H](O)CC[C@@]31CCNC2` [epinorlycoramine], the “acetylcholinesterase inhibitory activity in words” value in series [3] is on record as “completely lost”.
With `O[C@H]1[C@H]2c3cc4c(cc3CN3CCC(=C[C@@H]1O)[C@H]23)OCO4` [Lycorine (4), lycorine], in the series with human MT4 cells, the “cytotoxicity TC50” value was 0.75 µg/mL. Moreover, it took 0.48 µg/mL (≈ 1.67 µM) to reach half-maximal cytotoxicity in series [1] (CC50 at 5 days). Further, in the series on HIV-1, the “anti-HIV-1 activity ID50” value is 0.4 µg/mL and the “therapeutic index TI50” value is reported as 1.9. Also, the “acetylcholinesterase inhibitory activity in words” value in series [3] was “inactive”. In addition, in the series with HIV-1 (NL4-3), the EC50 is greater than 0.5 µg/mL.
Turning to `COc1ccc2c3c1O[C@H]1C[C@H](O)C=C[C@@]31CCNC2` [Epinorgalanthamine (6), epinorgalanthamine], the CC50 at 5 days in series [1] stood at 13 µg/mL (≈ 47.6 µM). In addition, the EC50 is 9.6 µM in series [3] (previously reported, read-out: acetylcholinesterase inhibitory properties) and greater than 13 µg/mL in the series on HIV-1 (NL4-3).
`COc1ccc2c3c1O[C@H]1C[C@@H](O)CC[C@]31CCN(C)C2` [lycoramine]: in series [3], the “acetylcholinesterase inhibitory activity in words” value is “completely lost”.
In turn, `COc1ccc2c3c1O[C@H]1C[C@@H](O)C=C[C@@]31CCN(C)C2` [Galanthamine (2), galanthamine, reference compound] registered a 50% cytotoxic concentration (CC50) at 5 days in series [1] greater than 25 µg/mL. For the same molecule, the EC50 in the series with HIV-1 (NL4-3) is greater than 25 µg/mL.
With `COc1cc2c(cc1O)[C@@H]1[C@H](OC2=O)[C@@H](OC)[C@@H]2O[C@@]23CCN(C)[C@@H]13` [Galwesine (5), galwesine], the “acetylcholinesterase inhibition in words” value in series [2] (at 10^−3 M) is “inactive”. Moreover, the EC50 in series [2] (setting [5]) is greater than 0.001 M; with HIV-1 (NL4-3) it was greater than 71.4 µg/mL. The molecule also displayed a 50% cytotoxic concentration (CC50) at 5 days in series [1] of 71.4 µg/mL (≈ 206 µM).
With `c1ccc2c(c1)ncc1cc3c(cc12)OCO3` [trisphaeri-dine, trisphaeridine], the “therapeutic index TI50” value in the series with HIV-1 is given as “even lower therapeutic indices than lycorine”.
